# From patent US20230190685A1, “FORMULATION” (UNION Therapeutics A/S, priority 2020, published 2023)
# Where “and” joins values, the source holds several entries; their conditions need not be identical. Identical values can stand only once.
# Assays:
# [1] = test system: SARS-CoV-2; conditions: Vero E6 cells; Wang et al. 2020; read-out: EC50 against SARS-CoV-2; cited from earlier work
# [2] = cited from earlier work
# [3] = test system: SARS-CoV; conditions: cited from earlier work
# [4] = test system: asthmatic mice; conditions: dissolved in corn oil, I.P. injection; cited from earlier work
# [5] = molecular target: T1, TMEM16F (Homo sapiens, UniProt Q4KMQ2); conditions: Cabrita et al. 2019; cited from earlier work
# T1 sequence (Q4KMQ2 1-910): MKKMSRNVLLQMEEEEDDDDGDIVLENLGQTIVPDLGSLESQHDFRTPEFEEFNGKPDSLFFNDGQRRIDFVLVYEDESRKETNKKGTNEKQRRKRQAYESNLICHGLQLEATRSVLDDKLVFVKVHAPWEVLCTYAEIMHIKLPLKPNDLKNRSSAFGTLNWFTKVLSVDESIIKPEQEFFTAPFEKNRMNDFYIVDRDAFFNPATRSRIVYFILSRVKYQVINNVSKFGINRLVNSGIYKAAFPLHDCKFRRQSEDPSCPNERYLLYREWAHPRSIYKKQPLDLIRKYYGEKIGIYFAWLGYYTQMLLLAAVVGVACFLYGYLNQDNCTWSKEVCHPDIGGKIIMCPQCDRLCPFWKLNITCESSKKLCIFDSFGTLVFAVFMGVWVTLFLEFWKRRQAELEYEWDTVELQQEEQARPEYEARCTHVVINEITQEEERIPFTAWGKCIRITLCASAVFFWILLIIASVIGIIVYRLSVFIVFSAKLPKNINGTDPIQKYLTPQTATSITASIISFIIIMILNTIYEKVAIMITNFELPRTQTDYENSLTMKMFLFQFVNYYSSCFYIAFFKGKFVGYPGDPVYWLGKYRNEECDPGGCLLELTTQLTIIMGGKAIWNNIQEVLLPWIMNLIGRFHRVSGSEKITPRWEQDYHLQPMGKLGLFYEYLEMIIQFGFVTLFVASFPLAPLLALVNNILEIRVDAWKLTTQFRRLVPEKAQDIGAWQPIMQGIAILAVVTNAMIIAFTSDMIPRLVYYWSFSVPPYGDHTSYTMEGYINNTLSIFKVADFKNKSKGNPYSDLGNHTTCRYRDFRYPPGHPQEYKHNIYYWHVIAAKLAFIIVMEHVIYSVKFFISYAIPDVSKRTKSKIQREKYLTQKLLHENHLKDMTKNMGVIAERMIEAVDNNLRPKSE
# [6] = molecular target: T2, TMEM16A (Homo sapiens, UniProt Q5XXA6); conditions: Cabrita et al. 2019; cited from earlier work
# T2 sequence (Q5XXA6 1-986): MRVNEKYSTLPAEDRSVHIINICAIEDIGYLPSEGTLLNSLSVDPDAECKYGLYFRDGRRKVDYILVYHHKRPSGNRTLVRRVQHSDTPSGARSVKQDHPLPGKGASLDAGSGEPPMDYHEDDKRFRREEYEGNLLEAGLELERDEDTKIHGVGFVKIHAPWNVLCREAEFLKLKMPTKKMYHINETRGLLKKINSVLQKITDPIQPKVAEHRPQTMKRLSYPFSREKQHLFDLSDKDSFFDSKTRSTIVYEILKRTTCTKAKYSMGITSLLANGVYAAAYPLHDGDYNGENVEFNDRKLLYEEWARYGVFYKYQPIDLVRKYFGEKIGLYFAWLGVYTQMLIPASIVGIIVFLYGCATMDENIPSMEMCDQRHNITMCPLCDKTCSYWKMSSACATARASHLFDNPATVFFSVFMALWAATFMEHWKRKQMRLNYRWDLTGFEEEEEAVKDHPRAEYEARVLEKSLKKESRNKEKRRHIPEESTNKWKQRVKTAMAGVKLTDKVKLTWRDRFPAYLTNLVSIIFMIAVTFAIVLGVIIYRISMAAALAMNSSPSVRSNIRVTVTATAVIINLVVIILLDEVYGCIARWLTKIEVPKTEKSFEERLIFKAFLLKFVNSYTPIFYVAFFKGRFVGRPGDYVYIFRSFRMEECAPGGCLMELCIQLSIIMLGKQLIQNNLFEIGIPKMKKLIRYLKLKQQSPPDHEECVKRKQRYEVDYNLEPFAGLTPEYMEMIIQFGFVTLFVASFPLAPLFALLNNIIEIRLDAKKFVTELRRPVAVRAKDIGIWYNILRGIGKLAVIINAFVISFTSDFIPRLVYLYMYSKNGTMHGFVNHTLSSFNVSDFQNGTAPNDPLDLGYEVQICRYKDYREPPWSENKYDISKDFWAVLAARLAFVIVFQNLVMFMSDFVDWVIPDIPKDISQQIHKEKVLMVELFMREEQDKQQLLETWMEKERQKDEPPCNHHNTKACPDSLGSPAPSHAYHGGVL
# [7] = in vivo
# [8] = test system: ATCC 29213 (A), MRSA 434844 (B) and S. aureus Newman (C); experiment: Spot test on LB agar, all three strains; format: cell-based; conditions: for effect on bacterial load, API in DMSO: repeat spot test, only highest concentration (niclosamide 100 µg/mL, oxyclozanide 40 µg/mL)
# Procedure: Following incubation, the formed colonies were counted. […] Duplicates were performed.
# As both positive controls were negative further the experiment was repeated using different concentrations in a spot test using the same methodology described above.
# In this experiment the negative control was the bacterial suspension only.
# [9] = test system: healthy volunteers; experiment: Phase 1 trial of inhaled niclosamide, safety and PK; conditions: after repeated inhalation doses; raw data
# [10] = as above; conditions: human, blood, inhaled, 6 mL of 1% formulation
# [11] = test system: Caco-2 cells
# [12] = test system: healthy volunteers; conditions: human, in vivo
# [13] = test system: VeroE6 cells
smiles,measurement,setting,value
CCN(CC)CCCC(C)Nc1ccnc2cc(Cl)ccc12 (stereo not shown) [chloroquine],EC50,[1],1130 nM
CC(=O)Oc1ccccc1C(=O)Nc1ncc([N+](=O)[O-])s1 [nitazoxanide],EC50,[1],2120 nM
O=C(Nc1ccc([N+](=O)[O-])cc1Cl)c1cc(Cl)ccc1O [niclosamide],administered dose detected in the urine (minimum level of absorption),[2]; after oral administration,2-25%
same,maximal serum concentration of niclosamide,"[2]; human volunteers, single oral dose of 2,000 mg",0.25-6.0 µg/mL and 0.76 -18.3 µM
same,oral bioavailability (F),[2]; oral,10%
same,concentration suppressing cytopathic effect (CPE) of SARS-CoV (as low as),[3],1 µm
same,concentration that totally abolished viral antigen synthesis,[3],1.56 µm
same,EC50,[3]; read-out: EC50 of SARS-CoV replication,< 100 nM
same,effect on mucus and bronchoconstriction in asthmatic mice,[4],"reduced mucus production and secretion, as well as bronchoconstriction"
same,inhibition of Cl- channel TMEM16F,[5],potent inhibitor
same,inhibition of Cl- channel TMEM16A,[6],potent inhibitor
same,"efficacy margin, mean systemic exposure of human oral dose to IC90 against SARS-CoV-2",[7],8 fold
same,"effect on bacterial load, API in DMSO",[8],substantially decreased the bacterial load
O=C(Nc1ccc([N+](=O)[O-])cc1Cl)c1cc(Cl)ccc1O [niclosamide ethanolamine],peak concentration in blood (range),[9],29 to 506 ng/mL
same,half-life,[10]; repeated,2.7 h
same,half-life,[10]; single dose,2 h
same,CC50,[11],> 10000 nM
same,"AUC0-8, mean",[12],509.0 ng·h/mL
same,"maximum plasma concentration (Cmax), mean",[12],238.9 ng/mL
same,CC50,[13],> 10000 nM
"O=C(Nc1cc(Cl)cc(Cl)c1O)c1c(O)c(Cl)cc(Cl)c1Cl [oxyclozanide, Oxyclozanide]",efficiency in reducing bacterial load of S. aureus,[8]; comparison of tested formulations,highest efficiency
same,"effect on bacterial load, API in DMSO",[8],substantially decreased the bacterial load
